Measurements as given in patent US11608323B2 (SYNGENTA LIMITED, priority 2013, dated 2023).

What was measured:
Format in all cases: in vivo
[1] = tested on: ECHCG; experiment: Post-emergence herbicidal activity, glasshouse pot test; conditions: Echinochloa crus-galli; application post-emergence; rate 1000 g/Ha; evaluated after 13 days
Summary of the method: (§1)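 Foliar application to 8-day-old plants using a 0.5% Tween 20 acetone/water carrier; phytotoxicity is scored visually from 0 to 5 after 13 days of growth at 24/16 °C day/night.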

[2] = tested on: ALOMY; experiment: as above; conditions: Alopecurus myosuroides; application post-emergence; rate 1000 g/Ha; evaluated after 13 days
Summary of the method: as §1

[3] = tested on: AMARE; experiment: as above; conditions: Amaranthus retroflexus; application post-emergence; rate 1000 g/Ha; evaluated after 13 days
Summary of the method: as §1

[4] = tested on: SETFA; experiment: as above; conditions: Setaria faberi; application post-emergence; rate 1000 g/Ha; evaluated after 13 days
Summary of the method: as §1

[5] = tested on: ABUTH; experiment: as above; conditions: Abutilon theophrasti; application post-emergence; rate 1000 g/Ha; evaluated after 13 days
Summary of the method: as §1

[6] = tested on: ZEAMX; experiment: as above; conditions: Zea mays; application post-emergence; rate 1000 g/Ha; evaluated after 13 days
Summary of the method: as §1

[7] = tested on: ECHCG; experiment: Pre-emergence herbicidal activity, glasshouse pot test; conditions: rate 1000 g/Ha, evaluated after 13 days, scale 0-5
Summary of the method: (§2)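 Damage was rated 13 days after treatment on a 0–5 scale (0 = no damage, 5 = total damage). Pots of seeds in standard soil were sprayed one day after sowing with an aqueous solution from an acetone/water (50:50), 0.5% Tween 20 formulation and kept at 24/16 °C day/night.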

[8] = tested on: ALOMY; experiment: as above; conditions: rate 1000 g/Ha, evaluated after 13 days, scale 0-5
Summary of the method: as §2

[9] = tested on: AMARE; experiment: as above; conditions: rate 1000 g/Ha, evaluated after 13 days, scale 0-5
Summary of the method: as §2

[10] = tested on: SETFA; experiment: as above; conditions: rate 1000 g/Ha, evaluated after 13 days, scale 0-5
Summary of the method: as §2

[11] = tested on: ABUTH; experiment: as above; conditions: rate 1000 g/Ha, evaluated after 13 days, scale 0-5
Summary of the method: as §2

[12] = tested on: ZEAMX; experiment: as above; conditions: rate 1000 g/Ha, evaluated after 13 days, scale 0-5
Summary of the method: as §2

Structure (SMILES) | Post-emergence herbicidal activity ECHCG (damage score 0-5) [1] | Post-emergence herbicidal activity ALOMY (damage score 0-5) [2] | Post-emergence herbicidal activity AMARE (damage score 0-5) [3] | Post-emergence herbicidal activity SETFA (damage score 0-5) [4] | Post-emergence herbicidal activity ABUTH (damage score 0-5) [5] | Post-emergence herbicidal activity ZEAMX (damage score 0-5) [6] | ECHCG damage score, application pre-emergence [7] | ALOMY damage score, application pre-emergence [8] | AMARE damage score, application pre-emergence [9] | SETFA damage score, application pre-emergence [10] | ABUTH damage score, application pre-emergence [11] | ZEAMX damage score, application pre-emergence [12]
CCOC1C(O)N(c2cc(C(F)(F)F)c(I)cn2)C(=O)N1C (stereo not drawn) [Compound A16] | 5 | 5 | 5 | 5 | 5 | 2 | 5 | 4 | 5 | 4 |  | 
COC1C(O)N(c2cc(C(F)(F)F)c(I)cn2)C(=O)N1C (stereo not drawn) [Compound A18] | 5 | 5 | 5 | 5 | 5 | 3 | 5 | 4 | 5 | 4 |  | 
COC1C(O)N(c2cc(C(F)(F)F)c(-c3cncnc3)cn2)C(=O)N1C (stereo not drawn) [Compound A15] | 4 | 4 | 5 | 4 | 5 | 0 | 3 | 3 | 5 | 4 |  | 
CN1C(=O)N(c2cc(C(F)(F)F)c(I)cn2)C(O)C1O (stereo not drawn) [Compound A17] | 5 | 5 | 5 | 5 | 5 | 4 | 4 | 3 | 5 | 3 |  | 
CC1C(O)N(c2cc(C(F)(F)Cl)ccn2)C(=O)N1C (stereo not drawn) [Compound A85] | 5 |  | 5 | 5 | 5 | 4 | 5 |  | 5 | 5 | 5 | 3
CC1C(O)N(c2cc(C(F)F)c(Cl)cn2)C(=O)N1C (stereo not drawn) [Compound A86] | 5 |  | 5 | 5 | 5 | 2 | 5 |  | 5 | 5 | 5 | 3
CCO[C@H]1[C@H](OC(=O)[C@](OC)(c2ccccc2)C(F)(F)F)N(c2cc(C(F)(F)F)ccn2)C(=O)N1C [Compound A103] | 0 |  | 2 | 1 | 0 | 1 | 1 |  | 2 | 4 | 1 | 1
CON1C(=O)N(c2cc(C(F)(F)F)c(C)cn2)C(O)[C@@H]1C (stereo partly drawn) [Compound A79] | 5 |  | 5 | 5 | 5 | 4 | 5 |  | 5 | 5 | 5 | 2
CC1C(O)N(c2cc(Cl)ccn2)C(=O)N1C (stereo not drawn) [Compound A92] | 5 |  | 5 | 5 | 5 | 4 | 5 |  | 5 | 4 | 5 | 3
CON1C(=O)N(c2cc(C(F)(F)F)ccn2)C(NCc2ccccc2)[C@@H]1C (stereo partly drawn) [Compound A104] | 5 |  | 5 | 5 | 5 | 5 | 5 |  | 5 | 5 | 4 | 3
CC1C(O)N(c2cc(C(F)(F)C(F)(F)F)ccn2)C(=O)N1C (single isomer, unassigned) [Compound A72] | 5 |  | 5 | 5 | 5 | 2 | 5 |  | 5 | 5 | 5 | 2
C[C@@H]1C(O)N(c2cc(C(F)(F)F)ccn2)C(=O)N1C (mixture of isomers) [Compound A38, (4R,5R)-4-hydroxy-1,5-dimethyl-3-[4-(trifluoromethyl)-2-pyridyl]imidazolidin-2-one and (4S,5R)-4-hydroxy-1,5-dimethyl-3-[4-(trifluoromethyl)-2-pyridyl]imidazolidin-2-one] | 5 |  | 5 | 5 | 5 | 4 | 5 |  | 5 | 5 | 5 | 3
